Earlier results, collected in publication PMC10307885, “A Phase 1/2 trial of SRA737 (a Chk1 inhibitor) administered orally in patients with advanced cancer” (British Journal of Cancer, 2023).

Experiments:
patients [1] = conditions: cited from earlier work
patients [2] = conditions: cited from earlier work; remark: listed apart in the source
[3] = in combination with standard dose gemcitabine

In the case of `NC(=O)Nc1cc(-c2cccc(F)c2)sc1C(=O)N[C@H]1CCCNC1` [AZD7762], the “toxicity that halted development” value (patients [1]; intravenously administered) is listed as “cardiac toxicity including a drop in ejection fraction”.
In the case of `COc1cccc(OCCCN)c1-c1cc(Nc2cnc(C#N)cn2)n[nH]1` [prexasertib], the rate of diarrhoea (patients [1]; intravenous, Phase 2 study) is given as 20%, the rate of nausea (patients [1]; intravenous, Phase 2 study) is given as 36% and the rate of vomiting (patients [1]; intravenous, Phase 2 study) is given as 27%. The “efficacy in squamous anal and head and neck cancers” value (patients [2]; intravenous, Phase 1 study) was “partial responses” and the response rate (patients [2]; patients with high-grade serous ovarian cancers) was 33%.
In the case of `N[C@@H]1CCCN(c2c(Br)cnc3[nH]cc(NC(=O)C4CC4)c23)C1` [GDC-0575], the “Treatment-related neutropenia of NCI CTCAE Grade 3 or higher” value (patients [1]; [3]) is listed as 60 % of patients, the “treatment-related GI adverse events of all grades: diarrhoea” value (patients [1]; [3]) is listed as 18% and the “treatment-related GI adverse events of all grades: nausea” value (patients [1]; [3]) is listed as 43%. For the same molecule, the “treatment-related GI adverse events of all grades: vomiting” value (patients [1]; [3]) was 27% and the “partial or complete responses” value (patients [2]; used as a single agent) was “did not report partial or complete responses”.
